# From patent publication US9108930B2, “N1- and N2-carbamoyl-1,2,3-triazole serine hydrolase inhibitors and methods” (The Scripps Research Institute, priority 2011, dated 2015)
# Experiments:
# [1] = test system: peritoneal macrophages of Pla2g4a-/- mice; assay: LPS-stimulated TNF-alpha release, macrophages from treated Pla2g4a-/- mice; type: in vivo, mouse; details: 5 mg/kg, 4 hours, i.p.
# Protocol: Next, the cytokine profiles from a Pla2g4a^+/+ background were compared with the profiles from Pla2g4a^−/− mice treated with KT109 or KT195 (5 mg/kg, 4 hours, i.p.). […] However, no significant differences in LPS-stimulated TNF-alpha levels were observed from Pla2g4a^+/+ versus […].
# [2] = biological target: T1, DAGLB (Mus musculus, UniProt Q91WC9); assay: Gel-based ABPP assay against recombinant DAGLB (HEK293T-DAGLB lysates); type: biochemical; parameters: Full-length cDNAs encoding serine hydrolases were purchased from Open Biosystems; V5; host or cells: HEK293T; details: recombinant
# T1 sequence (Q91WC9 1-669): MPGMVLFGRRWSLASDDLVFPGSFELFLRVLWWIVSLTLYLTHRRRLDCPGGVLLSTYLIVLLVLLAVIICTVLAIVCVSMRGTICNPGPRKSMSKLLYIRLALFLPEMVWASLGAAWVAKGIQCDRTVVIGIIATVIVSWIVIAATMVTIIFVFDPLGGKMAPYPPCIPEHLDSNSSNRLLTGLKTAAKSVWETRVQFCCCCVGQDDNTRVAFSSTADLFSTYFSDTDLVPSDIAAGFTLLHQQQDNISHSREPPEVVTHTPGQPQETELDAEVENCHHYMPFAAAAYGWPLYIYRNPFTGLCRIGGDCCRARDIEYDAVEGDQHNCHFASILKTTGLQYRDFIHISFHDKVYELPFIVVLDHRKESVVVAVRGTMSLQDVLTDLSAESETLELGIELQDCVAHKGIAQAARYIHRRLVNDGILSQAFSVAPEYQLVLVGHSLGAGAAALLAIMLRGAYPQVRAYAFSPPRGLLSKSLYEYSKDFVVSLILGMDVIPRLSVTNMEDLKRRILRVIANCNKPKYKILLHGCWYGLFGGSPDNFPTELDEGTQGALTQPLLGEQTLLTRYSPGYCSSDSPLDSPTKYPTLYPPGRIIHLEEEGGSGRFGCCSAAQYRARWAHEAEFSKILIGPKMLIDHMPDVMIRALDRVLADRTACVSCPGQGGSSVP
# [3] = test system: peritoneal macrophages; assay: Metabolomics of thioglycolate-elicited peritoneal macrophages from treated mice; type: in vivo, mouse; details: 5 mg/kg, 4 hours, i.p.
# Protocol: Mice were treated with KT109, KT172 or KT195 (5 mg/kg, 4 hours, i.p.) to evaluate whether blockade of DAGLB in peritoneal macrophages would result in metabolic effects similar to those observed in Neuro2A cells. Thioglycolate-elicited peritoneal macrophages were harvested, and the cells were subjected to metabolomics studies. […] All the metabolic effects observed in pharmacological studies were recapitulated using Daglb^−/− mice, providing genetic evidence that the changes were indeed DAGLB-mediated.
# Metabolites were quantified by either selected reaction monitoring (SRM) of each metabolite using an Agilent G6410B Triple-Quad instrument or untargeted metabolomic analysis (substrate assays) using an Agilent 1100 series LC-MSD SL instrument. […] For analysis of diacylglycerols (DAGs) a Luna C5 column (50 mm×4.60 mm with 5 μm diameter particles) from Phenomenex was used. Mobile phase A was made of 95:5 v/v H2O:MeOH, and mobile phase B was composed of 60:35:5 v/v/v i-PrOH:MeOH:H2O. Ammonium hydroxide (0.1%) and formic acid (0.1%) was included to assist in ion formation in negative and positive ionization modes, respectively. For analysis of DAGs, 5 mM ammonium formate was also used in addition to 0.1% formic acid to assist in positive ionization and NH4+ adduct formation. For metabolite measurements, cells were resuspended in 1 mL of a 1% NaCl solution and added to 3 mL of a 2:1 v/v CHCl3:MeOH doped with 1 nmol of the following internal standards: d5-2-arachidonoylglycerol (2-AG), d8-arachidonic acid (AA), and d8-1-stearoyl-2-arachidonoylglycerol (SAG). The mixture was vortexed and then centrifuged (1,400×g, 3 min). The organic layer was removed, CHCl3 was added until the final volume was again 4 ml, and the extraction was repeated. The combined organic extracts were dried under a stream of N2 and resolubilized in 2:1 v/v CHCl3:MeOH (120 μl). 30 μL of resolubilized lipids were injected for positive mode (MAGs and DAGs) and negative mode (free fatty acids and eicosanoids) measurements.
# The following parameters (MS) were used to measure the indicated metabolites by SRM (precursor ion, product ion, collision energy in V, polarity): C20:4 MAG or 2-AG (379, 287, 8, positive), d5-2-AG (384, 287, 5, positive), C18:0/C20:4 DAG or SAG (662, 341, 15, positive), d8-SAG (671, 671, 0, positive), C18:1/C20:4 DAG (660, 341, 15, positive), C16:0/C20:4 DAG (634, 341, 15, positive), C14:0/C20:4 DAG (606, 341, 15, positive), arachidonic acid or AA (303, 303, 0, negative), d8-AA (311, 267, 5, negative), PGE2 (351, 271, 10, negative), and PGD2 (351, 271, 10, negative). MS analysis was performed with an electrospray ionization source with the following parameters: drying gas temperature=350° C., drying gas flow rate=11 L/min, and the nebulizer pressure=35 psi. Prostaglandin SRM parameters were based on previously reported methods and transitions. Metabolites targeted by SRM were quantified by measuring the area under the peak in comparison with the internal standards. For metabolites where isotopic internal standards were not used, external standard curves with the internal standard versus metabolite standard were generated. In DAGL substrate assays, formation of the hydrolysis product, 2-AG was followed by measuring the area under the peak for 2-AG in comparison to the 1-monopentadecanoin standard ion.
# [4] = biological target: T1, DAGLB; assay: In vivo DAGLB inactivation in peritoneal macrophages, gel-based competitive ABPP using HT01; parameters: from tissue; host or cells: thioglycolate-elicited peritoneal macrophages of treated mice; details: for dose (as low as) giving complete inactivation of DAGLB in peritoneal macrophages: about 4 hours, doses about 10 to about 0.1 mg/kg
# [5] = biological target: T1, DAGLB; assay: ABPP-MudPIT of peritoneal macrophages from treated mice; details: in vivo
# [6] = test system: serine hydrolases in the peritoneal macrophage proteome; assay: ABPP-MudPIT of peritoneal macrophages from treated mice, off-targets; details: mouse, in vivo
# [7] = test system: serine hydrolases in mouse brain proteome; assay: Selectivity profile by competitive ABPP (mouse brain proteome), DAGL series; type: biochemical
SMILES,increase of TNF-alpha levels upon LPS stimulation [1],activity against DAGLB [2],change in 2-AG [3],change in SAG [3],"change in cellular AA, PGE2 and PGD2 [3]","time to complete inhibition of DAGLB ([4]; 5 mg/kg, i.p.)",dose (as low as) giving complete inactivation of DAGLB in peritoneal macrophages ([4]; i.p.),"inhibition at 5 mg/kg ([4]; mouse, ip, read-out: persistent inhibition of DAGLB after 16 hours)",DAGLB inhibition by spectral counting [5],off-target activities [6],off-target activity / selectivity against other serine hydrolases [7],effect on TNF-alpha levels upon LPS stimulation [1],"duration / time-course of DAGLB inhibition ([4]; 5 mg/kg, i.p., about 1 to 16 hours)"
O=C(N1CCCCC1Cc1ccccc1)n1cc(-c2ccc(-c3ccccc3)cc2)nn1 (centres unmarked) [KT109],2 fold,maintaining comparable potencies against DAGLB,Dramatic decreases in 2-AG,significant increases in SAG,significant decreases in cellular AA levels and a corresponding reduction in PGE2 and PGD2,within the first hour,0.5 mg/kg,~90%,confirmed inhibition of DAGLB,carboxylesterases (Ces3 and Ces2g),"improved selectivity against FAAH, MGLL, and ABHD11",,
COc1ccc(-c2ccc(-c3cn(C(=O)N4CCCCC4c4ccccc4)nn3)cc2)cc1 (centres unmarked) [KT195],,negligible activity against DAGLB at micromolar concentrations,no observable changes,,None of these effects were observed,,> 10 mg/kg,,no activity against DAGLB,also inhibited,completely inactivated ABHD6,no observable effects,no evidence of DAGLB inhibition during the entire time-course of treatment
